Results taken from patent US20230194505A1, “DETERMINING DRUG EFFECTS USING COMBINATION OF MEASUREMENTS” (Organos, Inc., priority 2020, published 2023).
Read-outs that look alike come from different tables or passages of the source.

Experiments:
hiPSC-CMs = experiment: Conduction velocity computed from measurements of the extracellular potential in a collection of hiPSC-CMs; assay type: cell-based, human; details: doses 1-10 μM
Protocol: From the U data 430, we include the value at each time point and each electrode (see (14)), and the conduction velocity is computed using the time points in which U crosses 0 mV after the peak in different electrodes (see (15) and FIG. 1). Given that U is measured at each electrode, another metric can be the time tcv for the U data 430 to go back to zero. Another metric uses the measurements at each of the time points (shown as separate dots 432; a sum of the square of the differences (or absolute value) between the model output and measured values can be summed.
where cv denotes the conduction velocity (in cm/s) computed from U recorded in the electrodes. More specifically, the conduction velocity is computed as the distance between the center of the two electrodes marked as a and b in FIG. 1 divided by the time between U crosses 0 mV after the peak in these two electrodes (see FIG. 4). The two electrodes used could be any two electrodes in the simulation.
One of the advantages of including measurements of the extracellular potential in addition to optical measurements of V and Ca in the inversion procedure is that the extracellular measurements can be used to estimate the conduction velocity of the cell collection. This information could be useful for determining drug effects on the INa current (see FIG. 6). […]

human cardiomyocytes = details: cited from earlier work
[1] = test system: rabbit ventricular myocyte; details: data from Baczkó et al. 2016, cited from earlier work
dog cardiomyocytes = details: 50 nM, paced at 1 Hz, data from Jost et al. 2013; cited from earlier work
zebrafish cardiomyocytes = details: 1 μM, data from Nemtsas et al. 2010; cited from earlier work
[2] = 30 μM, data from Baczkó et al. 2016 (B)
[3] = 30 μM, data from Orvos et al. 2019 (O)
[4] = 50 nM, paced at 1 Hz, data from Jost et al. 2013
[5] = 1 μM, data from Bussek et al. (B)
[6] = 1 μM, data from Jost et al. 2005 (J)

O=C(NCC1CCCCN1)c1cc(OCC(F)(F)F)ccc1OCC(F)(F)F (stereo not drawn) [Flecainide]
Effect of increasing drug dose on conduction velocity (hiPSC-CMs): the conduction velocity is decreased

CC(C)NCC(O)c1ccc(NS(C)(=O)=O)cc1 (stereo not drawn) [sotalol]
APD50, Human, drug measured (B) (change vs control) (human cardiomyocytes; [2]): +32.3%
APD90, Human, drug measured (B) (change vs control) (human cardiomyocytes; [2]): +37.5%
APD50, Human, drug measured (O) (change vs control) (human cardiomyocytes; [3]): +20.6%
APD90, Human, drug measured (O) (change vs control) (human cardiomyocytes; [3]): +28.2%
APD50, Rabbit, drug measured (change vs control) ([1]; 10 μM): +21.2%
APD90, Rabbit, drug measured (change vs control) ([1]; 10 μM): +19.6%
APD50, Rabbit, drug measured (change vs control) ([1]; 52 μM): +54.3%
APD90, Rabbit, drug measured (change vs control) ([1]; 52 μM): +54.1%

CN(CCOc1ccc(NS(C)(=O)=O)cc1)CCc1ccc(NS(C)(=O)=O)cc1 [dofetilide]
APD50, Dog, drug measured (change vs control) (dog cardiomyocytes): +17.5%
APD50, Human, drug measured (change vs control) (human cardiomyocytes; [4]): +33.3%
APD90, Human, drug measured (change vs control) (human cardiomyocytes; [4]): +44.3%

Cc1cccc(CCN2CCC(C(=O)c3ccc(NS(C)(=O)=O)cc3)CC2)n1 [E-4031]
APD50, Human, drug measured (B) (change vs control) (human cardiomyocytes; [5]): +27.7%
APD90, Human, drug measured (B) (change vs control) (human cardiomyocytes; [5]): +31.2%
APD50, Human drug measured (J) (change vs control) (human cardiomyocytes; [6]): +54.2%
APD90, Human drug measured (J) (change vs control) (human cardiomyocytes; [6]): +65.1%
APD50, Zebrafish drug measured (change vs control) (zebrafish cardiomyocytes): +38.7%
APD90, Zebrafish drug measured (change vs control) (zebrafish cardiomyocytes): +24.1%
